Measurements: patent US20060211026A1, “Methods for assessing emphysema” (Roche Palo Alto LLC, priority 2005, published 2006)

Legend:
Type in all cases: in vivo, Sprague-Dawley rats
tropoelastin = assay: Tropoelastin ELISA in homogenized lung tissue of smoke-exposed rats; conditions: oral daily 30 days after 8 months smoke; ATRA 3 mg/kg, R667 0.07-0.7 mg/kg; FIG. 1
Experimental: FIG. 1 depicts the amount of tropoelastin (in ng) measured in rats after treatment as set forth in Example 1(B).
(§1) (B) Adult male Sprague-Dawley rats were exposed daily to 10 cigarettes/rat for 8 months (control rats were exposed to air) to establish emphysema lesions. […] Supernatant from homogenized lung tissue was analyzed for concentration of tropoelastin by ELISA (using rabbit anti-tropoelastin; Elastin Products Co.).

[1] = tested on: gene expression in lung right lobes of 8 months smoked rats; assay: Lung gene expression by quantitative PCR in smoke-exposed rats; conditions: for Adam17 gene expression relative to 8 months smoked rats / Angpt1 gene expression relative to 8 months smoked rats / Areg gene expression relative to 8 months smoked rats / Colla1 gene expression relative to 8 months smoked rats / Crabp2 gene expression relative to 8 months smoked rats / Csf2 gene expression relative to 8 months smoked rats / Cxcl1 gene expression relative to 8 months smoked rats / Cxcl2 gene expression relative to 8 months smoked rats / Cxcl5 gene expression relative to 8 months smoked rats / Cyp26a1 gene expression relative to 8 months smoked rats / EGFR gene expression relative to 8 months smoked rats / Eln gene expression relative to 8 months smoked rats / FGF7 gene expression relative to 8 months smoked rats / Flt1 gene expression relative to 8 months smoked rats / Hif1a gene expression relative to 8 months smoked rats / HpGF gene expression relative to 8 months smoked rats / Hyou1 gene expression relative to 8 months smoked rats / Il6 gene expression relative to 8 months smoked rats / Il8ra/CXCR1 gene expression relative to 8 months smoked rats / Il8rb/CXCR2 gene expression relative to 8 months smoked rats / Kdr gene expression relative to 8 months smoked rats / Mmp9 gene expression relative to 8 months smoked rats / Mmp12 gene expression relative to 8 months smoked rats / PDGFA gene expression relative to 8 months smoked rats / Pgf gene expression relative to 8 months smoked rats / Rbp1 gene expression relative to 8 months smoked rats / Serpina1 gene expression relative to 8 months smoked rats / Sftpa1 gene expression relative to 8 months smoked rats / Sftpb gene expression relative to 8 months smoked rats / Slpi gene expression relative to 8 months smoked rats / TNF gene expression relative to 8 months smoked rats / Tek gene expression relative to 8 months smoked rats / Tgfb1 gene expression relative to 8 months smoked rats / Tgfbr2 gene expression relative to 8 months smoked rats / Tgm2 gene expression relative to 8 months smoked rats / Timp3 gene expression relative to 8 months smoked rats / VEGFa gene expression relative to 8 months smoked rats: rat lung
Experimental: as §1
RNA prepared from snap-frozen lung right lobes was analyzed for gene expression by quantitative PCR, using ABI Taqman following standard procedures.

[2] = tested on: gene expression in lung right lobes of 8 months smoked rats; assay: Lung gene expression by Affymetrix microarray in smoke-exposed rats
Experimental: as §1
Three individual lung right lobes from each condition were processed to extract mRNA according to standard Affymetrix protocols, and samples hybridized to Affymetrix Rat Expression Set 230 microarrays. Gene expression was analyzed using the Bioconductor package (Gentleman et al., Genome Biol (2004) v. 5), and differentially expressed genes selected using ANOVA model followed by Dunnett's test.

[3] = R667 0.07 mg/kg oral daily 30 days
[4] = R667 0.15 mg/kg oral daily 30 days
[5] = R667 0.7 mg/kg oral daily 30 days

## CC1=C(/C=C/C(C)=C/C=C/C(C)=C/C(=O)O)C(C)(C)CCC1 [ATRA, all-trans retinoic acid, reference compound]
tropoelastin
  Tropoelastin in lung tissue (effect of treatment): partially restored

## CC1(C)CCC(C)(C)c2cc(Cn3cccn3)c(C=Cc3ccc(C(=O)O)cc3)cc21 [R667, 4-[2-(5,5,8,8-tetramethyl-3-pyrazol-1-ylmethyl-5,6,7,8-tetrahydronaphthalen2-yl)-vinyl]-benzoic acid]
[1]; [3]
  Adam17 gene expression relative to 8 months smoked rats: 3.5
  Angpt1 gene expression relative to 8 months smoked rats: 3.8
  Areg gene expression relative to 8 months smoked rats: 5.9
  Colla1 gene expression relative to 8 months smoked rats: 7.1
  Crabp2 gene expression relative to 8 months smoked rats: 2.0
  Csf2 gene expression relative to 8 months smoked rats: 1.5
  Cxcl1 gene expression relative to 8 months smoked rats: 3.3
  Cxcl2 gene expression relative to 8 months smoked rats: 2.3
  Cxcl5 gene expression relative to 8 months smoked rats: 50.1
  Cyp26a1 gene expression relative to 8 months smoked rats: 2.2
  EGFR gene expression relative to 8 months smoked rats: 4.8
  Eln gene expression relative to 8 months smoked rats: 5.6
  FGF7 gene expression relative to 8 months smoked rats: 2.1
  Flt1 gene expression relative to 8 months smoked rats: 1.7
  Hif1a gene expression relative to 8 months smoked rats: 1.7
  HpGF gene expression relative to 8 months smoked rats: 3.0
  Hyou1 gene expression relative to 8 months smoked rats: 2.7
  Il6 gene expression relative to 8 months smoked rats: 1.8
  Il8ra/CXCR1 gene expression relative to 8 months smoked rats: 3.8
  Il8rb/CXCR2 gene expression relative to 8 months smoked rats: 2.0
  Kdr gene expression relative to 8 months smoked rats: 1.3
  Mmp9 gene expression relative to 8 months smoked rats: 1.7
  Mmp12 gene expression relative to 8 months smoked rats: 4.9
  PDGFA gene expression relative to 8 months smoked rats: 4.3
  Pgf gene expression relative to 8 months smoked rats: 1.6
  Rbp1 gene expression relative to 8 months smoked rats: 2.1
  Serpina1 gene expression relative to 8 months smoked rats: 2.3
  Sftpa1 gene expression relative to 8 months smoked rats: 5.4
  Sftpb gene expression relative to 8 months smoked rats: 1.9
  Slpi gene expression relative to 8 months smoked rats: 3.6
  TNF gene expression relative to 8 months smoked rats: 3.3
  Tek gene expression relative to 8 months smoked rats: 1.4
  Tgfb1 gene expression relative to 8 months smoked rats: 1.4
  Tgfbr2 gene expression relative to 8 months smoked rats: 2.0
  Tgm2 gene expression relative to 8 months smoked rats: 16.2
  Timp3 gene expression relative to 8 months smoked rats: 3.5
  VEGFa gene expression relative to 8 months smoked rats: 1.6
[1]; [4]
  Adam17 gene expression relative to 8 months smoked rats: 3.6
  Angpt1 gene expression relative to 8 months smoked rats: 1.8
  Areg gene expression relative to 8 months smoked rats: 3.7
  Colla1 gene expression relative to 8 months smoked rats: 8.4
  Crabp2 gene expression relative to 8 months smoked rats: 1.5
  Csf2 gene expression relative to 8 months smoked rats: 1.9
  Cxcl1 gene expression relative to 8 months smoked rats: 2.9
  Cxcl2 gene expression relative to 8 months smoked rats: 1.6
  Cxcl5 gene expression relative to 8 months smoked rats: 50.0
  Cyp26a1 gene expression relative to 8 months smoked rats: 3.9
  EGFR gene expression relative to 8 months smoked rats: 3.2
  Eln gene expression relative to 8 months smoked rats: 6.1
  FGF7 gene expression relative to 8 months smoked rats: 2.1
  Flt1 gene expression relative to 8 months smoked rats: 1.8
  Hif1a gene expression relative to 8 months smoked rats: 1.4
  HpGF gene expression relative to 8 months smoked rats: 3.1
  Hyou1 gene expression relative to 8 months smoked rats: 3.3
  Il6 gene expression relative to 8 months smoked rats: 2.4
  Il8ra/CXCR1 gene expression relative to 8 months smoked rats: 4.5
  Il8rb/CXCR2 gene expression relative to 8 months smoked rats: 2.0
  Kdr gene expression relative to 8 months smoked rats: 1.9
  Mmp9 gene expression relative to 8 months smoked rats: 1.5
  Mmp12 gene expression relative to 8 months smoked rats: 5.9
  PDGFA gene expression relative to 8 months smoked rats: 2.9
  Pgf gene expression relative to 8 months smoked rats: 0.9
  Rbp1 gene expression relative to 8 months smoked rats: 3.5
  Serpina1 gene expression relative to 8 months smoked rats: 1.5
  Sftpa1 gene expression relative to 8 months smoked rats: 4.4
  Sftpb gene expression relative to 8 months smoked rats: 2.1
  Slpi gene expression relative to 8 months smoked rats: 1.6
  TNF gene expression relative to 8 months smoked rats: 4.2
  Tek gene expression relative to 8 months smoked rats: 1.3
  Tgfb1 gene expression relative to 8 months smoked rats: 2.0
  Tgfbr2 gene expression relative to 8 months smoked rats: 1.5
  Tgm2 gene expression relative to 8 months smoked rats: 28.3
  Timp3 gene expression relative to 8 months smoked rats: 2.9
  VEGFa gene expression relative to 8 months smoked rats: 2.3
[1]; [5]
  Adam17 gene expression relative to 8 months smoked rats: 7.8
  Angpt1 gene expression relative to 8 months smoked rats: 3.1
  Areg gene expression relative to 8 months smoked rats: 7.2
  Colla1 gene expression relative to 8 months smoked rats: 7.9
  Crabp2 gene expression relative to 8 months smoked rats: 1.4
  Csf2 gene expression relative to 8 months smoked rats: 2.9
  Cxcl1 gene expression relative to 8 months smoked rats: 6.5
  Cxcl2 gene expression relative to 8 months smoked rats: 3.4
  Cxcl5 gene expression relative to 8 months smoked rats: 81.6
  Cyp26a1 gene expression relative to 8 months smoked rats: 3.7
  EGFR gene expression relative to 8 months smoked rats: 4.0
  Eln gene expression relative to 8 months smoked rats: 9.4
  FGF7 gene expression relative to 8 months smoked rats: 1.6
  Flt1 gene expression relative to 8 months smoked rats: 2.6
  Hif1a gene expression relative to 8 months smoked rats: 2.0
  HpGF gene expression relative to 8 months smoked rats: 5.6
  Hyou1 gene expression relative to 8 months smoked rats: 5.8
  Il6 gene expression relative to 8 months smoked rats: 4.5
  Il8ra/CXCR1 gene expression relative to 8 months smoked rats: 4.2
  Il8rb/CXCR2 gene expression relative to 8 months smoked rats: 2.5
  Kdr gene expression relative to 8 months smoked rats: 1.7
  Mmp9 gene expression relative to 8 months smoked rats: 1.9
  Mmp12 gene expression relative to 8 months smoked rats: 7.3
  PDGFA gene expression relative to 8 months smoked rats: 4.5
  Pgf gene expression relative to 8 months smoked rats: 2.7
  Rbp1 gene expression relative to 8 months smoked rats: 3.9
  Serpina1 gene expression relative to 8 months smoked rats: 2.9
  Sftpa1 gene expression relative to 8 months smoked rats: 7.0
  Sftpb gene expression relative to 8 months smoked rats: 2.9
  Slpi gene expression relative to 8 months smoked rats: 4.4
  TNF gene expression relative to 8 months smoked rats: 4.0
  Tek gene expression relative to 8 months smoked rats: 1.3
  Tgfb1 gene expression relative to 8 months smoked rats: 3.2
  Tgfbr2 gene expression relative to 8 months smoked rats: 2.1
  Tgm2 gene expression relative to 8 months smoked rats: 24.6
  Timp3 gene expression relative to 8 months smoked rats: 4.8
  VEGFa gene expression relative to 8 months smoked rats: 2.9
[1]; rats smoked 8 months, then R667 daily 30 days
  Restoration of smoke-suppressed gene expression in lung: restore expression of these genes to near-normal levels
[2]; [3]
  ELN expression level from microarray, relative to the 8 months smoked rat: 2.8 fold
  VEGF expression level from microarray, relative to the 8 months smoked rat: 1.7 fold
[2]; [4]
  ELN expression level from microarray, relative to the 8 months smoked rat: 3.1 fold
  VEGF expression level from microarray, relative to the 8 months smoked rat: 1.5 fold
[2]; [5]
  ELN expression level from microarray, relative to the 8 months smoked rat: 3.8 fold
  VEGF expression level from microarray, relative to the 8 months smoked rat: 2.4 fold
tropoelastin
  Tropoelastin in lung tissue (effect of treatment): partially restored
